According to US10646565B2, “Treatment of alzheimer'S disease (AD) with an aluminum salt” (AFFIRIS AG, priority 2014, dated 2020):

How the values were obtained:
[1] = system: respective immunizing peptide; experiment: ELISA titer of vaccination induced IgG Abs against immunizing peptide in Tg2576-mice; assay type: in vivo; conditions: 6x s.c. at 4-week intervals, plasma at sacrification, background 1/100, FIG. 6A
Description: Alum doses used were equivalent to 2 mg/ml. Vaccination induced Abs were measured in plasma samples taken at sacrification (SeqID 1 (n=10), […], KLH-Alum (n=10) and Alum only (n=8)). Samples were analyzed for their concentration of IgG Abs against specific peptides. Values depicted are the titer calculated as OD max/2 (at 405 nm) plus SEM. IgG response towards the respective immunizing peptide (SeqID 1: anti SeqID 1; SeqID 2: anti SeqID 2, KLH-Alum: anti KLH, Alum: anti AD02); B) Reactivity towards human Aβ1-40/42 after immunization. […] Background for this assay was set to 1/100, indicated by black lines and an asterisk in A+B.
Substrates used include human (BACHEM, CH) Aβ1-40/42 (at 5 μg/ml), KLH (1 μg/ml) and peptide-Bovine serum albumin (BSA) conjugates (SeqID 1 and SeqID 2, 1 μM). Optical density (OD) was measured at 405 nm using a micro-well reader (Tecan, CH). ODmax/2 was calculated.
To test the immunogenicity of two Aβ targeting vaccines SeqID 1-KLH-Alum and SeqID 2-KLH Alum in comparison to KLH-Alum and Alum (Aluminium-oxyhydroxide) only, Tg2576-mice were injected 6×, s.c., at 4-week intervals with either conjugate-vaccine containing 30 μg net peptide, equivalent doses of KLH formulated with Alum or Alum only. […] Vaccination induced Abs were measured in plasma samples taken at sacrification (SeqID 1 (n=10), SeqID 2 (n=8), KLH-Alum (n=10) and Alum only (n=8)).

patients with early AD [2] = experiment: AFF006 clinical trial: patient disposition, reason for discontinuation; assay type: in vivo, human
Description: Data supporting the invention are derived from a randomized clinical trial in early AD patients. The study (AFF006; Eudract: 2009-016504-22) randomized early AD patients into 5 treatment arms. Patients of 2 study arms received either 1 mg aluminium or 2 mg aluminium. In total, 99 early AD patients were enrolled into the 2 study arms. Participation of a given patient lasted 18 months.
AFF006 was conducted as a randomized, placebo-controlled, parallel group, double-blind, multi-center phase II study and assessed the clinical and immunological activity as well as the safety and tolerability of repeated s.c. administrations of i.a. aluminium (different doses) in patients with early AD, as defined in the protocol. It was performed in a total of 6 countries: Austria, France, Germany, Slovakia, Czech Republic and Croatia.
The clinical trial comprised 10 regular outpatient visits and 6 telephone interviews. Up to four weeks before start of treatment, a screening visit (Visit 1) was performed to ensure suitability of the patients for the clinical trial and to establish the patients' baseline characteristics. Following screening, eligible patients were randomly allocated to the treatment groups. After randomization at week 0, patients received 6 injections with either 1 or 2 mg aluminium. Injections were applied s.c. by the investigator at weeks 0, 4, 8, 12, 40 and 65 (Visit 2, 3, 4, 5, 7 and 9).
adverse events (AEs) and serious adverse events (SAEs) (number of patients who withdrew due to AEs; reason for withdrawal)

patients with early AD [3] = experiment: AFF006 clinical trial: MRI volume-based morphometry of hippocampus; assay type: in vivo, human; conditions: 2 mg group of patients, FIG. 4
Text: EMEA and FDA criteria recommend newer techniques, such as MRI, especially atrophy of entorhinal or (para-) hippocampal cortex. With the present invention, PET (Positron emission tomography)-MRI was applied. More specifically, volume of right hippocampus (important for learning and memory of material that is difficult to verbalise) is used according to the present invention as significant AD biomarker for treatment success.
Hippocampus (left and right), and whole lateral ventricle ROIs were delineated on an anatomical MRI template in order to generate the atlas for volumetric measures. The volumes of the hippocampus and lateral ventricles for each subject were determined using a fully-automated method which combines transformations derived from the nonlinear registration of the atlas labels to individual subject scans and subject-specific image information (Collins et al., J. Comput. Assist. Tomogr., 18: 192-205, 1994). Lateral ventricle and hippocampal segmentations that failed post-processing QC review were manually corrected. The total intracranial volume (TIV) was estimated from the brain mask generated during pre-processing and the average TIV (TIVavg) for each subject was determined by averaging the estimated TIV across visits. […]

[4] = aluminium oxyhydroxide; cited from earlier work
patients with early AD [5] = experiment: AFF006 clinical trial: Quality of Life (QOL) caregiver; assay type: in vivo, human; conditions: 2 mg compared to 1 mg and other groups, over a period of 18 months, FIG. 5
Text: Caregivers completed the measure as a questionnaire about their patients' QOL. The measure consisted of 13 items, rated on a 4 point scale, with 1 being poor and 4 being excellent. Outcomes are shown as the change over time using a least squares means from a mixed model.
QOL caregiver is a brief, 13-item questionnaire designed to specifically obtain a rating of the QOL of the patient from the caregiver's perspective. Questions cover relationships with friends and family, concerns about finances, physical condition, mood, and an overall assessment of life quality. All items are rated on a four-point scale, with 1 being poor and 4 being excellent. The total score is the sum of all items, which can range from 13 to 52. QOL caregiver values are presented here as the change from baseline. Outcomes were measured at Visits 1, 6, 8, and 10.

aluminium oxyhydroxide
IgG titer towards the peptide used for immunization (ODmax/2) [1]: did not elicit signals above background | Reason for Discontinuation from the Study: Death: subjects % (patients with early AD [2]; 1 mg s.c., N = 48): (4.2%) | Reason for Discontinuation from the Study: Death: subjects n (patients with early AD [2]; 1 mg s.c., N = 48): 2 | Reason for Discontinuation from the Study: Death: subjects % (patients with early AD [2]; 2 mg s.c., N = 51): (0.0%) | Reason for Discontinuation from the Study: Death: subjects n (patients with early AD [2]; 2 mg s.c., N = 51): 0 | MRI data (volume of right hippocampus) (patients with early AD [3]): statistically significant disease modifying effect | point of zero charge [4]: ~11 pH | QOL of the patient rated by caregivers (QOL-AD) (patients with early AD [5]): significantly improved
